`CC12CCC3C(CC[C@H]4NC(=O)CCC34C)C1CC[C@@H]2OC1CC1` (stereo partly drawn) [MDL 103,432, 17β-Cyclopropyloxy-4-aza-5α-androstan-3-one] gave a melting point of 237.5 to 238.5 °C.
